# Data reported in PubChem BioAssay (NCI).
#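 GI50 marks 50% less growth. The concentration for full growth arrest is given as TGI.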
# Experiments:
# Test in all cases: NCI-60 cell line screen, 384-well format
# COLO 205 colon = test system: COLO 205 colon
# SR leukemia = test system: SR leukemia
# OVCAR-8 ovarian = test system: OVCAR-8 ovarian
# DU-145 prostate = test system: DU-145 prostate
# HOP-92 NSCLC = test system: HOP-92 NSCLC
# KM12 colon = test system: KM12 colon
# NCI-H23 lung = test system: NCI-H23 lung
# SN12C renal = test system: SN12C renal
# MCF7 breast = test system: MCF7 breast
# 786-0 renal = test system: 786-0 renal
# UACC-257 melanoma = test system: UACC-257 melanoma
# EKVX NSCLC = test system: EKVX NSCLC
# T-47D breast = test system: T-47D breast
# HS 578T breast = test system: HS 578T breast
# NCI-H226 lung = test system: NCI-H226 lung
# OVCAR-4 ovarian = test system: OVCAR-4 ovarian
# SK-OV-3 ovarian = test system: SK-OV-3 ovarian
# A549 NSCLC = test system: A549 NSCLC
# SW-620 colon = test system: SW-620 colon
# M14 melanoma = test system: M14 melanoma
# K-562 leukemia = test system: K-562 leukemia
# HT29 colon = test system: HT29 colon
# UACC-62 melanoma = test system: UACC-62 melanoma
# NCI-H460 NSCLC = test system: NCI-H460 NSCLC
# ACHN renal = test system: ACHN renal
# PC-3 prostate = test system: PC-3 prostate
# SNB-19 CNS = test system: SNB-19 CNS
# CCRF-CEM leukemia = test system: CCRF-CEM leukemia
# UO-31 renal = test system: UO-31 renal
# HOP-62 NSCLC = test system: HOP-62 NSCLC
# CAKI-1 renal = test system: CAKI-1 renal
# TK-10 renal = test system: TK-10 renal
# U251 glioblastoma = test system: U251 glioblastoma
# MOLT-4 leukemia = test system: MOLT-4 leukemia
# SF-539 CNS = test system: SF-539 CNS
# NCI/ADR-RES ovarian = test system: NCI/ADR-RES ovarian
# SF-268 CNS = test system: SF-268 CNS
# HL-60(TB) leukemia = test system: HL-60(TB) leukemia
# A498 renal = test system: A498 renal
# SF-295 CNS = test system: SF-295 CNS
# MDA-MB-231 breast = test system: MDA-MB-231 breast
# SNB-75 CNS = test system: SNB-75 CNS
# IGROV1 ovarian = test system: IGROV1 ovarian
# OVCAR-3 ovarian = test system: OVCAR-3 ovarian
# HCT-15 colon = test system: HCT-15 colon
# HCT-116 colon = test system: HCT-116 colon
# LOX IMVI melanoma = test system: LOX IMVI melanoma
# BT-549 breast = test system: BT-549 breast
# MALME-3M melanoma = test system: MALME-3M melanoma
# RPMI-8226 leukemia = test system: RPMI-8226 leukemia
# NCI-H322M lung = test system: NCI-H322M lung
# MDA-MB-468 breast = test system: MDA-MB-468 breast
# NCI-H522 lung = test system: NCI-H522 lung
# SK-MEL-28 melanoma = test system: SK-MEL-28 melanoma
# HCC-2998 colon = test system: HCC-2998 colon
# SK-MEL-5 melanoma = test system: SK-MEL-5 melanoma
# MDA-MB-435 melanoma = test system: MDA-MB-435 melanoma
smiles,measurement,setting,value
C[C@@H]1COCCN1c1cc(C2([S@@](C)(=N)=O)CC2)nc(-c2ccnc3[nH]ccc23)n1,GI50,COLO 205 colon,9.01 µM
same,TGI,COLO 205 colon,62.6 µM
same,GI50,SR leukemia,0.0145 µM
same,TGI,SR leukemia,0.244 µM
same,GI50,OVCAR-8 ovarian,7.62 µM
same,TGI,OVCAR-8 ovarian,32.2 µM
same,GI50,DU-145 prostate,3.82 µM
same,TGI,DU-145 prostate,> 100 µM
same,GI50,HOP-92 NSCLC,3.02 µM
same,TGI,HOP-92 NSCLC,13.1 µM
same,GI50,KM12 colon,1.8 µM
same,TGI,KM12 colon,27.1 µM
same,GI50,NCI-H23 lung,1.97 µM
same,TGI,NCI-H23 lung,5.21 µM
same,GI50,SN12C renal,4.3 µM
same,TGI,SN12C renal,50.1 µM
same,GI50,MCF7 breast,1.27 µM
same,TGI,MCF7 breast,> 100 µM
same,GI50,786-0 renal,2.32 µM
same,TGI,786-0 renal,12.1 µM
same,GI50,UACC-257 melanoma,41.3 µM
same,TGI,UACC-257 melanoma,> 100 µM
same,GI50,EKVX NSCLC,9.1 µM
same,TGI,EKVX NSCLC,69.1 µM
same,GI50,T-47D breast,14.7 µM
same,TGI,T-47D breast,> 100 µM
same,GI50,HS 578T breast,1.22 µM
same,TGI,HS 578T breast,3.37 µM
same,GI50,NCI-H226 lung,16.1 µM
same,TGI,NCI-H226 lung,77 µM
same,GI50,OVCAR-4 ovarian,5.37 µM
same,TGI,OVCAR-4 ovarian,75.1 µM
same,GI50,SK-OV-3 ovarian,3.29 µM
same,TGI,SK-OV-3 ovarian,41.8 µM
same,GI50,A549 NSCLC,3.93 µM
same,TGI,A549 NSCLC,36.5 µM
same,GI50,SW-620 colon,10.6 µM
same,TGI,SW-620 colon,> 100 µM
same,GI50,M14 melanoma,2.44 µM
same,TGI,M14 melanoma,9.06 µM
same,GI50,K-562 leukemia,3.3 µM
same,TGI,K-562 leukemia,12 µM
same,GI50,HT29 colon,4.65 µM
same,TGI,HT29 colon,26.9 µM
same,GI50,UACC-62 melanoma,4.45 µM
same,TGI,UACC-62 melanoma,64.9 µM
same,GI50,NCI-H460 NSCLC,1.38 µM
same,TGI,NCI-H460 NSCLC,10.5 µM
same,GI50,ACHN renal,2.03 µM
same,TGI,ACHN renal,17.5 µM
same,GI50,PC-3 prostate,7.65 µM
same,TGI,PC-3 prostate,> 100 µM
same,GI50,SNB-19 CNS,9.29 µM
same,TGI,SNB-19 CNS,> 100 µM
same,GI50,CCRF-CEM leukemia,0.902 µM
same,TGI,CCRF-CEM leukemia,2.26 µM
same,GI50,UO-31 renal,4.47 µM
same,TGI,UO-31 renal,> 100 µM
same,GI50,HOP-62 NSCLC,2.15 µM
same,TGI,HOP-62 NSCLC,9.45 µM
same,GI50,CAKI-1 renal,3.87 µM
same,TGI,CAKI-1 renal,29.6 µM
same,GI50,TK-10 renal,1.83 µM
same,TGI,TK-10 renal,6.26 µM
same,GI50,U251 glioblastoma,5.72 µM
same,TGI,U251 glioblastoma,> 100 µM
same,GI50,MOLT-4 leukemia,1.35 µM
same,TGI,MOLT-4 leukemia,2.68 µM
same,GI50,SF-539 CNS,2.16 µM
same,TGI,SF-539 CNS,6.4 µM
same,GI50,NCI/ADR-RES ovarian,61.8 µM
same,TGI,NCI/ADR-RES ovarian,> 100 µM
same,GI50,SF-268 CNS,5.75 µM
same,TGI,SF-268 CNS,95.7 µM
same,GI50,HL-60(TB) leukemia,1.98 µM
same,TGI,HL-60(TB) leukemia,3.68 µM
same,GI50,A498 renal,1.12 µM
same,TGI,A498 renal,3.92 µM
same,GI50,SF-295 CNS,2.68 µM
same,TGI,SF-295 CNS,13.7 µM
same,GI50,MDA-MB-231 breast,6.06 µM
same,TGI,MDA-MB-231 breast,> 100 µM
same,GI50,SNB-75 CNS,3.9 µM
same,TGI,SNB-75 CNS,51.8 µM
same,GI50,IGROV1 ovarian,3.47 µM
same,TGI,IGROV1 ovarian,32.9 µM
same,GI50,OVCAR-3 ovarian,4.62 µM
same,TGI,OVCAR-3 ovarian,> 100 µM
same,GI50,HCT-15 colon,4.48 µM
same,TGI,HCT-15 colon,> 100 µM
same,GI50,HCT-116 colon,3.27 µM
same,TGI,HCT-116 colon,56.5 µM
same,GI50,LOX IMVI melanoma,3.43 µM
same,TGI,LOX IMVI melanoma,14 µM
same,GI50,BT-549 breast,1.98 µM
same,TGI,BT-549 breast,7.43 µM
same,GI50,MALME-3M melanoma,3.72 µM
same,TGI,MALME-3M melanoma,23.6 µM
same,GI50,RPMI-8226 leukemia,1.82 µM
same,TGI,RPMI-8226 leukemia,4.28 µM
same,GI50,NCI-H322M lung,1.78 µM
same,TGI,NCI-H322M lung,7.77 µM
same,GI50,MDA-MB-468 breast,5.01 µM
same,TGI,MDA-MB-468 breast,27.3 µM
same,GI50,NCI-H522 lung,10.8 µM
same,TGI,NCI-H522 lung,> 100 µM
same,GI50,SK-MEL-28 melanoma,23.8 µM
same,TGI,SK-MEL-28 melanoma,> 100 µM
same,GI50,HCC-2998 colon,1.1 µM
same,TGI,HCC-2998 colon,5.38 µM
same,GI50,SK-MEL-5 melanoma,7.66 µM
same,TGI,SK-MEL-5 melanoma,25 µM
same,GI50,MDA-MB-435 melanoma,7.48 µM
same,TGI,MDA-MB-435 melanoma,> 100 µM
